From ChEMBL document CHEMBL6177997, “Design, Synthesis, and Evaluation of Novel ROCK Inhibitors for Glaucoma Treatment: Insights into In Vitro and In Vivo Efficacy and Safety” (J Med Chem, 2025)
pIC50: −log10 of the molar value.

These compounds were tested against MAP kinase-interacting serine/threonine-protein kinase 1 (Homo sapiens, UniProt Q9BUB5) (assay: Inhibition of MNK1 (unknown origin) at 5 uM preincubated for 10 mins followed by substrate addition and measured after 60 mins by ADP-glo kinase assay relative to control). Details: time 70.0 min.
Chain of MAP kinase-interacting serine/threonine-protein kinase 1 (Q9BUB5 whole entry, looked up): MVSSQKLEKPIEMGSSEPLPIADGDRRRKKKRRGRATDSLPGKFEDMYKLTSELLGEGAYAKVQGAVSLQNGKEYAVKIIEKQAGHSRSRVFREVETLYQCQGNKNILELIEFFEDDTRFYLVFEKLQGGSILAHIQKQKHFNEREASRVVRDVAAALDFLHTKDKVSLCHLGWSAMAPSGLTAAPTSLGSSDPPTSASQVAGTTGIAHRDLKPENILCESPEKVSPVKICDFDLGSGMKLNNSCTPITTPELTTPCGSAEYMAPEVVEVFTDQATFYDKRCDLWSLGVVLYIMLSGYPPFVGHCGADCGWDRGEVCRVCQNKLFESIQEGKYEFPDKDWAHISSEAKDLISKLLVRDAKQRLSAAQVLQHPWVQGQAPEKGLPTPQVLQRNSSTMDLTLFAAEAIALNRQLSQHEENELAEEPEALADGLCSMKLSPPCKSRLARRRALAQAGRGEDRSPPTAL

| inhibition [%] | SMILES |
| --- | --- |
| 63.6 | O=S(=O)(C1CC1)N1CCC(c2cc(-c3ccnc4[nH]ccc34)[nH]n2)CC1 |
| 61.6 | COC(=O)c1cccc(CN2CCC(c3cc(-c4ccnc5[nH]ccc45)[nH]n3)CC2)c1 |
| 73.2 | c1ccc(CN2CCC(c3cc(-c4ccnc5[nH]ccc45)[nH]n3)CC2)cc1 |
| 40.9 | O=C(C1CC1)N1CCC(c2cc(-c3ccnc4[nH]ccc34)[nH]n2)CC1 |
| 56 | C=CC(=O)N1CCC(c2cc(-c3ccnc4[nH]ccc34)[nH]n2)CC1 |
| 76 | Cc1ccc(CN2CCC(c3cc(-c4ccnc5[nH]ccc45)[nH]n3)CC2)cc1 |
| 16 | CCS(=O)(=O)N1CCC(c2cc(-c3ccnc4[nH]ccc34)[nH]n2)CC1 |
| 52.5 | COc1cccc(C(=O)N2CCC(c3cc(-c4ccnc5[nH]ccc45)[nH]n3)CC2)c1 |
| 69.9 | Fc1cccc(CN2CCC(c3cc(-c4ccnc5[nH]ccc45)[nH]n3)CC2)c1 |
| 71.1 | Fc1ccc(CN2CCC(c3cc(-c4ccnc5[nH]ccc45)[nH]n3)CC2)cc1F |
| 81.3 | O=C(c1ccc(C(F)(F)F)cc1)N1CCC(c2cc(-c3ccnc4[nH]ccc34)[nH]n2)CC1 |
| 8.8 | COc1ccc(CC(=O)N2CCC(c3cc(-c4ccnc5[nH]ccc45)[nH]n3)CC2)cc1 |
| 49.7 | O=C(Cc1ccccc1)N1CCC(c2cc(-c3ccnc4[nH]ccc34)[nH]n2)CC1 |
| 66.6 | O=C(c1cccc(F)c1)N1CCC(c2cc(-c3ccnc4[nH]ccc34)[nH]n2)CC1 |
| 6.4 | Cc1ccc(S(=O)(=O)N2CCC(c3cc(-c4ccnc5[nH]ccc45)[nH]n3)CC2)cc1 |
| 61.5 | COc1ccc(CN2CCC(c3cc(-c4ccnc5[nH]ccc45)[nH]n3)CC2)cc1 |
| 41.6 | COc1cccc(CC(=O)N2CCC(c3cc(-c4ccnc5[nH]ccc45)[nH]n3)CC2)c1 |
| 71.4 | Cc1cccc(CN2CCC(c3cc(-c4ccnc5[nH]ccc45)[nH]n3)CC2)c1 |
| 65.2 | COc1ccc(CN2CCC(c3cc(-c4ccnc5[nH]ccc45)[nH]n3)CC2)cc1OC |

These compounds were tested against MAP kinase-interacting serine/threonine-protein kinase 2 (Homo sapiens) (UniProt Q9HBH9) (assay: Inhibition of MNK2 (unknown origin) at 5 uM preincubated for 10 mins followed by substrate addition and measured after 60 mins by ADP-glo kinase assay relative to control). Details: time 70.0 min.
Chain of MAP kinase-interacting serine/threonine-protein kinase 2 (Homo sapiens) (Q9HBH9 whole entry, looked up): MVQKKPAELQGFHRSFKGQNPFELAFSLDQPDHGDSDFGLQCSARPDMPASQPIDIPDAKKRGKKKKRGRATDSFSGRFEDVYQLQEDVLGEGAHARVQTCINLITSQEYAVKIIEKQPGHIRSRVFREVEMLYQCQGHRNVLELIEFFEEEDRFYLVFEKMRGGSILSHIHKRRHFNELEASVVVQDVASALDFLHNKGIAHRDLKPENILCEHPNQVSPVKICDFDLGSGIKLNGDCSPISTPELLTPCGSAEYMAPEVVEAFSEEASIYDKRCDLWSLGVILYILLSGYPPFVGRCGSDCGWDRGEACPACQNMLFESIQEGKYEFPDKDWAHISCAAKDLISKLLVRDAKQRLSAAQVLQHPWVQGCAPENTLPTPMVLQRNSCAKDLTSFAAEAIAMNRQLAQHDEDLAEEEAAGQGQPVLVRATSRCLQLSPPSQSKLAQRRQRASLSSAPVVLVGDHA

| inhibition [%] | SMILES |
| --- | --- |
| 73.4 | O=S(=O)(C1CC1)N1CCC(c2cc(-c3ccnc4[nH]ccc34)[nH]n2)CC1 |
| 70.9 | COC(=O)c1cccc(CN2CCC(c3cc(-c4ccnc5[nH]ccc45)[nH]n3)CC2)c1 |
| 82.4 | c1ccc(CN2CCC(c3cc(-c4ccnc5[nH]ccc45)[nH]n3)CC2)cc1 |
| 42.5 | O=C(C1CC1)N1CCC(c2cc(-c3ccnc4[nH]ccc34)[nH]n2)CC1 |
| 61 | C=CC(=O)N1CCC(c2cc(-c3ccnc4[nH]ccc34)[nH]n2)CC1 |
| 82.2 | Cc1ccc(CN2CCC(c3cc(-c4ccnc5[nH]ccc45)[nH]n3)CC2)cc1 |
| 22.4 | CCS(=O)(=O)N1CCC(c2cc(-c3ccnc4[nH]ccc34)[nH]n2)CC1 |
| 34.3 | COc1cccc(C(=O)N2CCC(c3cc(-c4ccnc5[nH]ccc45)[nH]n3)CC2)c1 |
| 76.8 | Fc1cccc(CN2CCC(c3cc(-c4ccnc5[nH]ccc45)[nH]n3)CC2)c1 |
| 78.8 | Fc1ccc(CN2CCC(c3cc(-c4ccnc5[nH]ccc45)[nH]n3)CC2)cc1F |
| 57.4 | O=C(c1ccc(C(F)(F)F)cc1)N1CCC(c2cc(-c3ccnc4[nH]ccc34)[nH]n2)CC1 |
| 4.2 | COc1ccc(CC(=O)N2CCC(c3cc(-c4ccnc5[nH]ccc45)[nH]n3)CC2)cc1 |
| 72.2 | O=C(Cc1ccccc1)N1CCC(c2cc(-c3ccnc4[nH]ccc34)[nH]n2)CC1 |
| 52.1 | O=C(c1cccc(F)c1)N1CCC(c2cc(-c3ccnc4[nH]ccc34)[nH]n2)CC1 |
| 6.9 | Cc1ccc(S(=O)(=O)N2CCC(c3cc(-c4ccnc5[nH]ccc45)[nH]n3)CC2)cc1 |
| 67.4 | COc1ccc(CN2CCC(c3cc(-c4ccnc5[nH]ccc45)[nH]n3)CC2)cc1 |
| 62.7 | COc1cccc(CC(=O)N2CCC(c3cc(-c4ccnc5[nH]ccc45)[nH]n3)CC2)c1 |
| 79.9 | Cc1cccc(CN2CCC(c3cc(-c4ccnc5[nH]ccc45)[nH]n3)CC2)c1 |
| 66.1 | COc1ccc(CN2CCC(c3cc(-c4ccnc5[nH]ccc45)[nH]n3)CC2)cc1OC |

Each compound was assayed against Rho-associated protein kinase 1 (Homo sapiens, UniProt Q13464) (assay: Inhibition of ROCK1 (unknown origin) incubated for 40 mins in presence of ATP by ADP-glo assay). Details: not given.
Chain of Rho-associated protein kinase 1 (Q13464 whole entry): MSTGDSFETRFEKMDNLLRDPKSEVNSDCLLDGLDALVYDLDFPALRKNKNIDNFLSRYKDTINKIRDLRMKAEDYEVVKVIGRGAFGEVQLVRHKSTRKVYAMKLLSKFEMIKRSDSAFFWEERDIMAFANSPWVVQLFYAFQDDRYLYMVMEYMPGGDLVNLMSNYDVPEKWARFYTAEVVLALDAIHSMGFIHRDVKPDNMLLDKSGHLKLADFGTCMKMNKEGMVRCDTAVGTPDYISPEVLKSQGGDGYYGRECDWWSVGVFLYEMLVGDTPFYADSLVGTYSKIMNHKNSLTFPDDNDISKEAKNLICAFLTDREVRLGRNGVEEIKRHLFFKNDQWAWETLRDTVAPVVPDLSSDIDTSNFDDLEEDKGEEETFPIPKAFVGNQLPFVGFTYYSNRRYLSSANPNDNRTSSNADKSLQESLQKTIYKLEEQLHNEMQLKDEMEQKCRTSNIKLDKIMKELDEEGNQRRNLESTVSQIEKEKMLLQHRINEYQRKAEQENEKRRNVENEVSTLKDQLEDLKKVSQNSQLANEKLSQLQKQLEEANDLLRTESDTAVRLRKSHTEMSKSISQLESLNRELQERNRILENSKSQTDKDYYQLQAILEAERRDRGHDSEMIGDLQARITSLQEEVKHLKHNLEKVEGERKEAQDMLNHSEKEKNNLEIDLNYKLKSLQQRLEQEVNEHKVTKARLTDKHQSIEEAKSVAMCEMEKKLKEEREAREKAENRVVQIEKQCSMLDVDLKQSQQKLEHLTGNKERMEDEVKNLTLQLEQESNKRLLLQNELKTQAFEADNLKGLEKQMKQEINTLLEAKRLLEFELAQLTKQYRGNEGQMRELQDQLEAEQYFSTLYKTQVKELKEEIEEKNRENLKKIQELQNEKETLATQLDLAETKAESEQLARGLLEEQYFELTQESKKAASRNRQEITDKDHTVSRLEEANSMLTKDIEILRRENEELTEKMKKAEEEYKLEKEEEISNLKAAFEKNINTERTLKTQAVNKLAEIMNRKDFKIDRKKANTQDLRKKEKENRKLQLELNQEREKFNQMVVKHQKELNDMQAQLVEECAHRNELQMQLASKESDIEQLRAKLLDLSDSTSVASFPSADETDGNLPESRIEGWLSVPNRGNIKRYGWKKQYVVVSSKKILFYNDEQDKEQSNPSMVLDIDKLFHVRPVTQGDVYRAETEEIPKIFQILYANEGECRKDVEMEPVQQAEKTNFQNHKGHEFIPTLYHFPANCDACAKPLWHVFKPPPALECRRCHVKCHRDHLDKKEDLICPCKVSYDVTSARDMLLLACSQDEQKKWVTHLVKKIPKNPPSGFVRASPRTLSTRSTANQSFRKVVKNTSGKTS

| pIC50 | SMILES |
| --- | --- |
| 6.31 | O=S(=O)(C1CC1)N1CCC(c2cc(-c3ccnc4[nH]ccc34)[nH]n2)CC1 |
| 6.24 | COC(=O)c1cccc(CN2CCC(c3cc(-c4ccnc5[nH]ccc45)[nH]n3)CC2)c1 |
| 6.71 | c1ccc(CN2CCC(c3cc(-c4ccnc5[nH]ccc45)[nH]n3)CC2)cc1 |
| 6.00 | O=C(C1CC1)N1CCC(c2cc(-c3ccnc4[nH]ccc34)[nH]n2)CC1 |
| 6.10 | C=CC(=O)N1CCC(c2cc(-c3ccnc4[nH]ccc34)[nH]n2)CC1 |
| < 5.30 | Cc1ccc(CN2CCC(c3cc(-c4ccnc5[nH]ccc45)[nH]n3)CC2)cc1 |
| 6.54 | CCS(=O)(=O)N1CCC(c2cc(-c3ccnc4[nH]ccc34)[nH]n2)CC1 |
| 6.09 | COc1cccc(C(=O)N2CCC(c3cc(-c4ccnc5[nH]ccc45)[nH]n3)CC2)c1 |
| 6.53 | Fc1cccc(CN2CCC(c3cc(-c4ccnc5[nH]ccc45)[nH]n3)CC2)c1 |
| 6.37 | Fc1ccc(CN2CCC(c3cc(-c4ccnc5[nH]ccc45)[nH]n3)CC2)cc1F |
| 5.94 | O=C(c1ccc(C(F)(F)F)cc1)N1CCC(c2cc(-c3ccnc4[nH]ccc34)[nH]n2)CC1 |
| 6.09 | COc1ccc(CC(=O)N2CCC(c3cc(-c4ccnc5[nH]ccc45)[nH]n3)CC2)cc1 |
| 6.36 | O=C(Cc1ccccc1)N1CCC(c2cc(-c3ccnc4[nH]ccc34)[nH]n2)CC1 |
| 6.07 | O=C(c1cccc(F)c1)N1CCC(c2cc(-c3ccnc4[nH]ccc34)[nH]n2)CC1 |
| < 5.00 | Cc1ccc(S(=O)(=O)N2CCC(c3cc(-c4ccnc5[nH]ccc45)[nH]n3)CC2)cc1 |
| 6.74 | COc1ccc(CN2CCC(c3cc(-c4ccnc5[nH]ccc45)[nH]n3)CC2)cc1 |
| 6.46 | COc1cccc(CC(=O)N2CCC(c3cc(-c4ccnc5[nH]ccc45)[nH]n3)CC2)c1 |
| < 5.30 | Cc1cccc(CN2CCC(c3cc(-c4ccnc5[nH]ccc45)[nH]n3)CC2)c1 |
| 6.62 | COc1ccc(CN2CCC(c3cc(-c4ccnc5[nH]ccc45)[nH]n3)CC2)cc1OC |

What follows are compounds tested against Rho-associated protein kinase 2 (Homo sapiens, UniProt O75116) (assay: Inhibition of ROCK2 (unknown origin) incubated for 40 mins in presence of ATP by ADP-glo assay). Details: not given.
Chain of Rho-associated protein kinase 2 (O75116 whole entry): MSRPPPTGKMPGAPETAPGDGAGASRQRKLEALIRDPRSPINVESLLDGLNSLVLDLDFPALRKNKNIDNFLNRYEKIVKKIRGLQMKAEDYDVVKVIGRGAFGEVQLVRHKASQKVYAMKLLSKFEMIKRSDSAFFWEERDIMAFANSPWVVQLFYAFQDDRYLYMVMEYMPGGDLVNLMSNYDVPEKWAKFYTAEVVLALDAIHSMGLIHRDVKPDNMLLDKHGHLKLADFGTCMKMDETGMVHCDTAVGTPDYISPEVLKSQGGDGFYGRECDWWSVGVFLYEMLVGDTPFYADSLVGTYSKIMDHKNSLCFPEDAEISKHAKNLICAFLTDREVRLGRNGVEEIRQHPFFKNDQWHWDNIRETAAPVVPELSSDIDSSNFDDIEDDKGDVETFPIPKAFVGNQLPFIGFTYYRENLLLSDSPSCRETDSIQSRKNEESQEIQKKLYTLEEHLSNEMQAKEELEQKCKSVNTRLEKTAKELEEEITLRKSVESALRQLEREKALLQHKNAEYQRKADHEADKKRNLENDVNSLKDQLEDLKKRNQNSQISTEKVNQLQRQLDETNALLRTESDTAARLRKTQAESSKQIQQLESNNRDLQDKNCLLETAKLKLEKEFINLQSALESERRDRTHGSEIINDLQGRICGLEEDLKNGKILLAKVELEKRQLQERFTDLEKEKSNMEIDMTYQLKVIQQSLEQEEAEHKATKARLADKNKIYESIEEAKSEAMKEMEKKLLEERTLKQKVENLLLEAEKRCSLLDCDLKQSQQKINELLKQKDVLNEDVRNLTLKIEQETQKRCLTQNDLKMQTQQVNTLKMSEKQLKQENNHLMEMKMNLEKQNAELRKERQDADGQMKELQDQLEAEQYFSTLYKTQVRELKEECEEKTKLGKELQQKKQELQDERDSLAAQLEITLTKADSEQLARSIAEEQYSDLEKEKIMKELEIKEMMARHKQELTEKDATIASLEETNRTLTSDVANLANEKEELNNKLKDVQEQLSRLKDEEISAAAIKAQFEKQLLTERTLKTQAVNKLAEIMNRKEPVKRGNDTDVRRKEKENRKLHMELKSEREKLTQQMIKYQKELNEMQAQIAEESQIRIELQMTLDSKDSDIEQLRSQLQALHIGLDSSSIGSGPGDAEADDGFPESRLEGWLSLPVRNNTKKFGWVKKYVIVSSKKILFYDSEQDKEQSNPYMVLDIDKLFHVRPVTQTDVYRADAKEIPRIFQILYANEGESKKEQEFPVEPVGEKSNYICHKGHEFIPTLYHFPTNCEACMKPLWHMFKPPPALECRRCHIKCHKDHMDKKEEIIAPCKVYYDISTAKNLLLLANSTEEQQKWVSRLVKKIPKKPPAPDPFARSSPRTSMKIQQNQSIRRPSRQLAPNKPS

| pIC50 | SMILES |
| --- | --- |
| 5.97 | O=S(=O)(C1CC1)N1CCC(c2cc(-c3ccnc4[nH]ccc34)[nH]n2)CC1 |
| 6.41 | COC(=O)c1cccc(CN2CCC(c3cc(-c4ccnc5[nH]ccc45)[nH]n3)CC2)c1 |
| 6.76 | c1ccc(CN2CCC(c3cc(-c4ccnc5[nH]ccc45)[nH]n3)CC2)cc1 |
| 5.97 | O=C(C1CC1)N1CCC(c2cc(-c3ccnc4[nH]ccc34)[nH]n2)CC1 |
| 6.26 | C=CC(=O)N1CCC(c2cc(-c3ccnc4[nH]ccc34)[nH]n2)CC1 |
| < 5.30 | Cc1ccc(CN2CCC(c3cc(-c4ccnc5[nH]ccc45)[nH]n3)CC2)cc1 |
| 6.80 | CCS(=O)(=O)N1CCC(c2cc(-c3ccnc4[nH]ccc34)[nH]n2)CC1 |
| 6.24 | COc1cccc(C(=O)N2CCC(c3cc(-c4ccnc5[nH]ccc45)[nH]n3)CC2)c1 |
| 6.47 | Fc1cccc(CN2CCC(c3cc(-c4ccnc5[nH]ccc45)[nH]n3)CC2)c1 |
| 6.53 | Fc1ccc(CN2CCC(c3cc(-c4ccnc5[nH]ccc45)[nH]n3)CC2)cc1F |
| 6.03 | O=C(c1ccc(C(F)(F)F)cc1)N1CCC(c2cc(-c3ccnc4[nH]ccc34)[nH]n2)CC1 |
| 6.31 | COc1ccc(CC(=O)N2CCC(c3cc(-c4ccnc5[nH]ccc45)[nH]n3)CC2)cc1 |
| 6.36 | O=C(Cc1ccccc1)N1CCC(c2cc(-c3ccnc4[nH]ccc34)[nH]n2)CC1 |
| 6.27 | O=C(c1cccc(F)c1)N1CCC(c2cc(-c3ccnc4[nH]ccc34)[nH]n2)CC1 |
| < 5.00 | Cc1ccc(S(=O)(=O)N2CCC(c3cc(-c4ccnc5[nH]ccc45)[nH]n3)CC2)cc1 |
| 6.93 | COc1ccc(CN2CCC(c3cc(-c4ccnc5[nH]ccc45)[nH]n3)CC2)cc1 |
| 6.52 | COc1cccc(CC(=O)N2CCC(c3cc(-c4ccnc5[nH]ccc45)[nH]n3)CC2)c1 |
| < 5.30 | Cc1cccc(CN2CCC(c3cc(-c4ccnc5[nH]ccc45)[nH]n3)CC2)c1 |
| 6.82 | COc1ccc(CN2CCC(c3cc(-c4ccnc5[nH]ccc45)[nH]n3)CC2)cc1OC |
